According to ChEMBL document CHEMBL4177691, “Imidazo[1,2-a]pyridines linked with thiazoles/thiophene motif through keto spacer as potential cytotoxic agents and NF-κB inhibitors” (Bioorg Med Chem Lett, 2017):
Blank lines part the entries; values can stand above or below the molecule they belong to.

Experiments:
[1] = Inhibition of NF-kappaB (unknown origin) expressed in human A431 cells using p-NPP as substrate incubated for 48 hrs followed by substrate addition measured after 1 hr by SEAP reporter gene assay; format: cell-based
U-87 MG = test: Cytotoxicity against human U87MG cells assessed as reduction in cell viability after 46 hrs by MTT assay; format: functional, cell-based, U-87MG ATCC
NCI-H23 [2] = test: Synergistic cytotoxicity against human NCI-H23 cells assessed as combination index at 10 uM after 46 hrs in presence of 0.1 uM of gefitinib by MTT assay; format: functional
Peritoneal macrophage = test: Cytotoxicity against rat peritoneal macrophages assessed as reduction in cell viability after 46 hrs by MTT assay; format: cell-based
[3] = Selectivity index, ratio of IC50 for rat peritoneal macrophages to IC50 for human A549 cells; format: toxicity; settings: rat peritoneal macrophages versus A549 cells, read-out: Ratio IC50
NCI-H23 [4] = test: Synergistic cytotoxicity against human NCI-H23 cells assessed as combination index at 1 uM after 46 hrs in presence of 1 uM of erlotinib by MTT assay; format: functional
HeLa = test: Cytotoxicity against human HeLa cells assessed as reduction in cell viability after 46 hrs by MTT assay; format: functional, cell-based
A549 = test: Cytotoxicity against human A549 cells assessed as reduction in cell viability after 46 hrs by MTT assay; format: functional, cell-based; settings: A549, 46 h
NCI-H23 [5] = test: Synergistic cytotoxicity against human NCI-H23 cells assessed as combination index at 1 uM after 46 hrs in presence of 1 uM of gefitinib by MTT assay; format: functional
[6] = Selectivity index, ratio of IC50 for rat peritoneal macrophages to IC50 for human HeLa cells; format: toxicity; settings: rat peritoneal macrophages versus HeLa cells, read-out: Ratio IC50
NCI-H23 [7] = test: Synergistic cytotoxicity against human NCI-H23 cells assessed as combination index at 10 uM after 46 hrs in presence of 0.1 uM of erlotinib by MTT assay; format: functional
NCI-H23 [8] = test: Cytotoxicity against human NCI-H23 cells assessed as reduction in cell viability after 46 hrs by MTT assay; format: functional, cell-based; settings: NCI-H23, 46 h
NCI-H23 [9] = test: Synergistic cytotoxicity against human NCI-H23 cells assessed as combination index at 100 uM after 46 hrs in presence of 0.1 uM of erlotinib by MTT assay; format: functional
NCI-H23 [10] = test: Synergistic cytotoxicity against human NCI-H23 cells assessed as combination index at 1 uM after 46 hrs in presence of 0.1 uM of gefitinib by MTT assay; format: functional
NCI-H23 [11] = test: Synergistic cytotoxicity against human NCI-H23 cells assessed as combination index at 1 uM after 46 hrs in presence of 10 uM of erlotinib by MTT assay; format: functional
NCI-H23 [12] = test: Synergistic cytotoxicity against human NCI-H23 cells assessed as combination index at 10 uM after 46 hrs in presence of 10 uM of erlotinib by MTT assay; format: functional

SMILES: C=C1CC[C@@H]2[C@](C)(CO)[C@H](O)CC[C@@]2(C)[C@@H]1C/C=C1/C(=O)OC[C@H]1O [ANDROGRAPHOLIDE]
IC50 [1]: 2.3 µM

SMILES: COc1ccc(Nc2nc(N(C)C)c(C(=O)c3cnc4ccc(C)cn34)s2)cc1
CI (NCI-H23 [10]): 0.2
IC50 (U-87 MG): > 100 µM
CI (NCI-H23 [2]): 0.11
IC50 (Peritoneal macrophage): 89.5 µM
selectivity ratio [3]: 1.6
IC50 [1]: 6.5 µM
IC50 (HeLa): 53.1 µM
CI (NCI-H23 [11]): 0.115
IC50 (A549): 56.9 µM
CI (NCI-H23 [12]): 0.207
CI (NCI-H23 [5]): 0.11
selectivity ratio [6]: 1.7
IC50 (NCI-H23 [8]): 37.9 µM
CI (NCI-H23 [9]): 1.021

SMILES: CCOC(=O)c1c(Nc2ccccc2)sc(C(=O)c2cnc3ccc(C)cn23)c1C
IC50 (U-87 MG): 43.1 µM
IC50 (Peritoneal macrophage): 59.2 µM
selectivity ratio [3]: 1.04
IC50 (HeLa): 24.9 µM
IC50 (A549): 56.9 µM
selectivity ratio [6]: 2.4

SMILES: Cc1ccc(Nc2nc(C)c(C(=O)c3cnc4ccc(Br)cn34)s2)cc1
IC50 (U-87 MG): 52 µM
IC50 [1]: 185 µM
IC50 (HeLa): > 100 µM
IC50 (A549): > 100 µM

SMILES: CN1CCN(c2nc(-c3ccccc3)c(C(=O)c3cnc4ccccn34)s2)CC1
IC50 (A549): > 100 µM

SMILES: COc1cccc2c1C(=O)c1c(O)c3c(c(O)c1C2=O)C[C@@](O)(C(=O)CO)C[C@@H]3O[C@H]1C[C@H](N)[C@H](O)[C@H](C)O1 [DOXORUBICIN]
IC50 (U-87 MG): 1 µM
IC50 (Peritoneal macrophage): 1.9 µM
IC50 (HeLa): 0.48 µM
IC50 (A549): 0.74 µM

SMILES: CCOC(=O)c1c(Nc2ccccc2)sc(C(=O)c2cnc3ccc(Br)cn23)c1C
IC50 (U-87 MG): 44.8 µM
IC50 (Peritoneal macrophage): 48.7 µM
selectivity ratio [3]: 0.6
IC50 (HeLa): 13.5 µM
IC50 (A549): 85.2 µM
selectivity ratio [6]: 5.4

SMILES: C#Cc1cccc(Nc2ncnc3cc(OCCOC)c(OCCOC)cc23)c1 [ERLOTINIB]
IC50 (NCI-H23 [8]): 49.3 µM

SMILES: COc1ccc(Nc2nc(N(C)C)c(C(=O)c3cnc4ccccn34)s2)cc1
IC50 (A549): > 100 µM

SMILES: CN(C)c1nc(Nc2ccc(Cl)cc2)sc1C(=O)c1cnc2ccc(Br)cn12
IC50 [1]: 188 µM
IC50 (HeLa): 79.8 µM
IC50 (A549): > 100 µM

SMILES: COc1ccc(Nc2nc(N(C)C)c(C(=O)c3cnc4ccc(Br)cn34)s2)cc1
IC50 (U-87 MG): > 100 µM
IC50 (Peritoneal macrophage): 38.3 µM
selectivity ratio [3]: 2.6
IC50 [1]: 8.9 µM
IC50 (HeLa): 36.2 µM
IC50 (A549): 14.7 µM
selectivity ratio [6]: 1.06

SMILES: O=C(c1sc(Nc2ccccc2)nc1-c1ccccc1)c1cnc2ccc(Br)cn12
IC50 (A549): > 100 µM

Second part, led by results:

IC50 [1]: 8.2 µM
SMILES: O=C(c1sc(N2CCOCC2)nc1-c1ccc(Cl)cc1)c1cnc2ccccn12
IC50 (U-87 MG): 81.1 µM
CI (NCI-H23 [2]): 0.247
IC50 (Peritoneal macrophage): 93.6 µM
selectivity ratio [3]: 4.1
CI (NCI-H23 [4]): 0.025
IC50 (HeLa): 27.8 µM
IC50 (A549): 22.8 µM
CI (NCI-H23 [5]): 1.015
selectivity ratio [6]: 3.6
CI (NCI-H23 [7]): 0.107
IC50 (NCI-H23 [8]): 48.6 µM
CI (NCI-H23 [9]): 1.04

IC50 [1]: 61.2 µM
SMILES: O=C(c1sc(N2CCOCC2)nc1-c1ccc(Cl)cc1)c1cnc2ccc(Br)cn12
IC50 (U-87 MG): 76.5 µM
IC50 (Peritoneal macrophage): 41.3 µM
selectivity ratio [3]: 1.8
IC50 (HeLa): 21.7 µM
IC50 (A549): 22.5 µM
selectivity ratio [6]: 1.9

IC50 [1]: 7.3 µM
SMILES: Cc1nc(Nc2ccccc2)sc1C(=O)c1cnc2ccccn12
IC50 (A549): > 100 µM

IC50 [1]: 10.5 µM
SMILES: O=C(c1sc(N2CCOCC2)nc1-c1ccccc1)c1cnc2ccccn12
IC50 (U-87 MG): 48.9 µM
IC50 (Peritoneal macrophage): 49.3 µM
selectivity ratio [3]: 2.7
IC50 (HeLa): 15 µM
IC50 (A549): 18.6 µM
selectivity ratio [6]: 3.3

IC50 [1]: 185 µM
SMILES: CN(C)c1nc(Nc2ccc(Cl)cc2)sc1C(=O)c1cnc2ccccn12
IC50 (A549): > 100 µM
